Experimental data as given in US9487515B2, “Compounds modulating c-fms and/or c-kit activity and uses therefor” (Plexxikon Inc., priority 2006, dated 2016).
pIC50: −log10 of the molar value.

Target: c-kit (Homo sapiens, UniProt P10721)
Assay: c-kit assays of Examples 40 and 41 (AlphaScreen kinase assays at 10 and 100 μM ATP, 33P-ATP filter assay, M-07e SCF-stimulated proliferation and phosphorylation)

Chain of c-kit (P10721 with tags, fused parts or gaps): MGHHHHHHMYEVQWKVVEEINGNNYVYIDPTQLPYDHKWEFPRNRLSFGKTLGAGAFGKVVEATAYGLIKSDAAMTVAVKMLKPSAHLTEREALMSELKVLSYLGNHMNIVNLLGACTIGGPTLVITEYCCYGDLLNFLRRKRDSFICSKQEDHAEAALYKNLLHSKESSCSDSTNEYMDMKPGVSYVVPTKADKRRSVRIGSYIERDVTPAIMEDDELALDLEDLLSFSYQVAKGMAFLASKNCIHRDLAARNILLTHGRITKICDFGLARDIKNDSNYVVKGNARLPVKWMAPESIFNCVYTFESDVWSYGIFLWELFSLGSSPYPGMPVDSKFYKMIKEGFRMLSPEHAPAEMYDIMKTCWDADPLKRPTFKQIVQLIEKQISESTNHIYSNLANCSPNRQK

| SMILES | pIC50 |
| --- | --- |
| Clc1cnc2[nH]cc(Cc3sc(NCc4cccc(N5CCOCC5)n4)nc3Cl)c2c1 [P-0252, [4-Chloro-5-(5-chloro-1H-pyrrolo[2,3-b]pyridin-3-ylmethyl)-thiazol-2-yl]-(6-morpholin-4-yl-pyridin-2-ylmethyl)-amine] | > 6.00 |
| Fc1cccc(CCNc2ccc(Cc3c[nH]c4ncccc34)cn2)c1 [P-0128, [2-(3-Fluoro-phenyl)-ethyl]-[5-(1H-pyrrolo[2,3-b]pyridin-3-ylmethyl)-pyridin-2-yl]-amine] | > 6.00 |
| Clc1ccc(CNc2ccc(Cc3c[nH]c4ncc(Br)cc34)cn2)cc1 [P-0038, [5-(5-Bromo-1H-pyrrolo[2,3-b]pyridin-3-ylmethyl)-pyridin-2-yl]-(4-chloro-benzyl)-amine] | > 6.00 |
| Clc1cccc(CNc2ccc(Cc3c[nH]c4ncccc34)cn2)c1 [P-0129, (3-chloro-benzyl)-[5-(1H-pyrrolo[2,3-b]pyridin-3-ylmethyl)-pyridin-2-yl]-amine] | > 6.00 |
| FC(F)(F)c1ccc(CNc2ncc(Cc3c[nH]c4ncc(Cl)cc34)cn2)cc1 [P-0266, [5-(5-Chloro-1H-pyrrolo[2,3-b]pyridin-3-ylmethyl)-pyrimidin-2-yl]-(4-trifluoromethyl-benzyl)-amine] | > 6.00 |
| Fc1c(Cl)cccc1CNc1ccc(Cc2c[nH]c3ncccc23)cn1 [P-0354, (3-Chloro-2-fluoro-benzyl)-[5-(1H-pyrrolo[2,3-b]pyridin-3-ylmethyl)-pyridin-2-yl]-amine] | > 6.00 |
| Fc1ccc(Cl)cc1CNc1ccc(Cc2c[nH]c3ncccc23)cn1 [P-0382, (5-Chloro-2-fluoro-benzyl)-[5-(1H-pyrrolo[2,3-b]pyridin-3-ylmethyl)-pyridin-2-yl]-amine] | > 6.00 |
| COc1ccc(CNc2ccc(Cc3c[nH]c4ncc(C)cc34)cn2)cn1 [P-0282, (6-Methoxy-pyridin-3-ylmethyl)-[5-(5-methyl-1H-pyrrolo[2,3-b]pyridin-3-ylmethyl)-pyridin-2-yl]-amine] | > 6.00 |
| c1ccc(CNc2ccc(Cc3c[nH]c4ncccc34)cn2)cc1 [P-0001, benzyl-[5-(1H-pyrrolo[2,3-b]pyridin-3-ylmethyl)-pyridin-2-yl]-amine] | > 6.00 |
| COc1cccc(CNc2ccc(Cc3c[nH]c4ncccc34)cn2)c1Cl [P-0359, (2-Chloro-3-methoxy-benzyl)-[5-(1H-pyrrolo[2,3-b]pyridin-3-ylmethyl)-pyridin-2-yl]-amine] | > 6.00 |
| COc1ncccc1CNc1ccc(Cc2c[nH]c3ncc(C)cc23)cn1 [P-0285, (2-Methoxy-pyridin-3-ylmethyl)-[5-(5-methyl-1H-pyrrolo[2,3-b]pyridin-3-ylmethyl)-pyridin-2-yl]-amine] | > 6.00 |
| Clc1ccc(CNc2nc(Cl)c(Cc3c[nH]c4ncc(Cl)cc34)s2)cc1 [P-0194, (4-Chloro-benzyl)-[4-chloro-5-(5-chloro-1H-pyrrolo[2,3-b]pyridin-3-ylmethyl)-thiazol-2-yl]-amine] | > 6.00 |
| CCn1cc(CNc2nc(Cl)c(Cc3c[nH]c4ncc(Cl)cc34)s2)cn1 [P-0239, [4-Chloro-5-(5-chloro-1H-pyrrolo[2,3-b]pyridin-3-ylmethyl)-thiazol-2-yl]-(1-ethyl-1H-pyrazol-4-ylmethyl)-amine] | > 6.00 |
| Fc1ccc(CNc2ccc(Cc3c[nH]c4ncccc34)cn2)c(Cl)c1 [P-0221, (2-Chloro-4-fluoro-benzyl)-[5-(1H-pyrrolo[2,3-b]pyridin-3-ylmethyl)-pyridin-2-yl]-amine] | > 6.00 |
| COc1ccc(CNc2ccc(Cc3c[nH]c4ncc(Cl)cc34)cn2)cn1 [P-0283, [5-(5-Chloro-1H-pyrrolo[2,3-b]pyridin-3-ylmethyl)-pyridin-2-yl]-(6-methoxy-pyridin-3-ylmethyl)-amine] | > 6.00 |
| CCc1nc(C)c(CNc2nc(Cl)c(Cc3c[nH]c4ncccc34)s2)[nH]1 [P-0205, [4-Chloro-5-(1H-pyrrolo[2,3-b]pyridin-3-ylmethyl)-thiazol-2-yl]-(2-ethyl-5-methyl-3H-imidazol-4-ylmethyl)-amine] | > 6.00 |
| Fc1ccc(CNc2ccc(Cc3c[nH]c4ncccc34)cn2)nc1 [P-0355, (5-Fluoro-pyridin-2-ylmethyl)-[5-(1H-pyrrolo[2,3-b]pyridin-3-ylmethyl)-pyridin-2-yl]-amine] | > 6.00 |
| FC(F)(F)c1ccc(CNc2nc(Cl)c(Cc3c[nH]c4ncccc34)s2)cn1 [P-0173, [4-Chloro-5-(1H-pyrrolo[2,3-b]pyridin-3-ylmethyl)-thiazol-2-yl]-(6-trifluoromethyl-pyridin-3-ylmethyl)-amine] | > 6.00 |
| Cc1cc(F)ccc1CNc1ccc(Cc2c[nH]c3ncccc23)cn1 [P-0372, (4-Fluoro-2-methyl-benzyl)-[5-(1H-pyrrolo[2,3-b]pyridin-3-ylmethyl)-pyridin-2-yl]-amine] | > 6.00 |
| COc1ccc(CNc2nc(Cl)c(Cc3c[nH]c4ncc(Cl)cc34)s2)cn1 [P-0190, [4-Chloro-5-(5-chloro-1H-pyrrolo[2,3-b]pyridin-3-ylmethyl)-thiazol-2-yl]-(6-methoxy-pyridin-3-ylmethyl)-amine] | > 6.00 |
| Fc1ccc(Cc2c[nH]c3ncccc23)c(F)n1 [P-0154, 3-(2,6-difluoro-pyridin-3-ylmethyl)-1H-pyrrolo[2,3-b]pyridine] | > 6.00 |

| SMILES | pIC50 |
| --- | --- |
| Clc1ccc(CNc2ncc(Cc3c[nH]c4ncccc34)cn2)cc1 [P-0307, (4-Chloro-benzyl)-[5-(1H-pyrrolo[2,3-b]pyridin-3-ylmethyl)-pyrimidin-2-yl]-amine] | > 6.00 |
| Fc1c(Cl)cccc1CNc1ncc(Cc2c[nH]c3ncc(Cl)cc23)cn1 [P-0392, (3-Chloro-2-fluoro-benzyl)-[5-(5-chloro-1H-pyrrolo[2,3-b]pyridin-3-ylmethyl)-pyrimidin-2-yl]-amine] | > 6.00 |
| N#Cc1cnc2[nH]cc(Cc3ccc(NCc4ccc(C(F)(F)F)cc4)nc3)c2c1 [P-0269, 3-[6-(4-Trifluoromethyl-benzylamino)-pyridin-3-ylmethyl]-1H-pyrrolo[2,3-b]pyridine-5-carbonitrile] | > 6.00 |
| Fc1cnc2[nH]cc(Cc3ccc(NCc4ccccc4C(F)(F)F)nc3)c2c1 [P-0325, [5-(5-Fluoro-1H-pyrrolo[2,3-b]pyridin-3-ylmethyl)-pyridin-2-yl]-(2-trifluoromethyl-benzyl)-amine] | > 6.00 |
| COc1cnc2[nH]cc(Cc3ccc(NCc4ccc(OC)nc4)nc3)c2c1 [P-0332, (6-Methoxy-pyridin-3-ylmethyl)-[5-(5-methoxy-1H-pyrrolo[2,3-b]pyridin-3-ylmethyl)-pyridin-2-yl]-amine] | > 6.00 |
| Fc1ccccc1CNc1ccc(Cc2c[nH]c3ncc(Cl)cc23)cn1 [P-0270, [5-(5-Chloro-1H-pyrrolo[2,3-b]pyridin-3-ylmethyl)-pyridin-2-yl]-(2-fluoro-benzyl)-amine] | > 6.00 |
| FC(F)(F)COc1ncccc1CNc1ccc(Cc2c[nH]c3ncccc23)cn1 [P-0376, [5-(1H-Pyrrolo[2,3-b]pyridin-3-ylmethyl)-pyridin-2-yl]-[2-(2,2,2-trifluoro-ethoxy)-pyridin-3-ylmethyl]-amine] | > 6.00 |
| Clc1cnc2[nH]cc(Cc3cnc(NCc4ccccc4Cl)nc3)c2c1 [P-0263, (2-Chloro-benzyl)-[5-(5-chloro-1H-pyrrolo[2,3-b]pyridin-3-ylmethyl)-pyrimidin-2-yl]-amine] | > 6.00 |
| O=C(c1ccc(NCc2cccs2)nc1)c1c[nH]c2ncccc12 [P-0018, (1H-Pyrrolo[2,3-b]pyridin-3-yl)-{6-[(thiophen-2-ylmethyl)-amino]-pyridin-3-yl}-methanone] | > 6.00 |
| COc1ccc(CNc2ccc(Cc3c[nH]c4ncc(Cl)cc34)c(F)n2)cn1 [P-0379, [5-(5-Chloro-1H-pyrrolo[2,3-b]pyridin-3-ylmethyl)-6-fluoro-pyridin-2-yl]-(6-methoxy-pyridin-3-ylmethyl)-amine] | > 6.00 |
| COc1ccnc2[nH]cc(Cc3ccc(NCc4ccc(C(F)(F)F)cc4)nc3)c12 [P-0011, [5-(4-Methoxy-1H-pyrrolo[2,3-b]pyridin-3-ylmethyl)-pyridin-2-yl]-(4-trifluoromethyl-benzyl)-amine] | > 6.00 |
| c1cnc2[nH]cc(Cc3ccc(NCc4ccc(CN5CCOCC5)cc4)nc3)c2c1 [P-0093, (4-Morpholin-4-ylmethyl-benzyl)-[5-(1H-pyrrolo[2,3-b]pyridin-3-ylmethyl)-pyridin-2-yl]-amine] | > 6.00 |
| Fc1ccc(CNc2ncc(Cc3c[nH]c4ncccc34)cn2)c(F)c1 [P-0306, (2,4-Difluoro-benzyl)-[5-(1H-pyrrolo[2,3-b]pyridin-3-ylmethyl)-pyrimidin-2-yl]-amine] | > 6.00 |
| FC(F)Oc1ccccc1CNc1ncc(Cc2c[nH]c3ncc(Cl)cc23)cn1 [P-0390, [5-(5-Chloro-1H-pyrrolo[2,3-b]pyridin-3-ylmethyl)-pyrimidin-2-yl]-(2-difluoromethoxy-benzyl)-amine] | > 6.00 |
| Cc1cccc(C(=O)Nc2ccc(Cc3c[nH]c4ncccc34)cn2)c1 [P-0122, 3-Methyl-N-[5-(1H-pyrrolo[2,3-b]pyridin-3-ylmethyl)-pyridin-2-yl]-benzamide] | > 6.00 |
| Fc1ccc(F)c(CNc2ncc(Cc3c[nH]c4ncc(Cl)cc34)cn2)c1 [P-0267, [5-(5-Chloro-1H-pyrrolo[2,3-b]pyridin-3-ylmethyl)-pyrimidin-2-yl]-(2,5-difluoro-benzyl)-amine] | > 6.00 |
| O=C(Nc1ccc(Cc2c[nH]c3ncccc23)cn1)c1ccccn1 [P-0107, Pyridine-2-carboxylic acid [5-(1H-pyrrolo[2,3-b]pyridin-3-ylmethyl)-pyridin-2-yl]-amide] | > 6.00 |
| Fc1nc(NCc2ccc(C(F)(F)F)nc2)ccc1Cc1c[nH]c2ncc(Cl)cc12 [P-0186, [5-(5-Chloro-1H-pyrrolo[2,3-b]pyridin-3-ylmethyl)-6-fluoro-pyridin-2-yl]-(6-trifluoromethyl-pyridin-3-ylmethyl)-amine] | > 6.00 |
| COc1cncc(CNc2ccc(Cc3c[nH]c4ncccc34)cn2)c1 [P-0222, (5-Methoxy-pyridin-3-ylmethyl)-[5-(1H-pyrrolo[2,3-b]pyridin-3-ylmethyl)-pyridin-2-yl]-amine] | > 6.00 |
| FC(F)Oc1ccccc1CNc1ccc(Cc2c[nH]c3ncccc23)cn1 [P-0367, (2-Difluoromethoxy-benzyl)-[5-(1H-pyrrolo[2,3-b]pyridin-3-ylmethyl)-pyridin-2-yl]-amine] | > 6.00 |
